The term mortality denotes the percentage killed.

This passage reports mortality and pest or weed control results from US8802713B2, “3-alkoxy-1-phenylpyrazole derivatives and pesticides” (Kumiai Chemical Industry Co., Ltd., priority 2007, dated 2014).

One test relates to brown rice planthopper. In words: Insecticidal test on brown rice planthopper. The class given is in vivo. The following applies: 144 h. As to the method: A wettable powder prepared in accordance with Formulation Example 2 was diluted with water to a concentration of an active ingredient of 500 ppm. Rice sprouts were dipped in this solution and put in a plastic cup having a capacity of 60 mL. Ten third-instar larvae of brown rice planthopper were released in the cup, the cup was lidded and placed in a thermostatic chamber at 25° C. for 6 days, and the number of dead larvae were counted for calculation of the mortality by Equation 2. The test was carried out by one series system.

A further test has as its system two-spotted spider mites. The experiment in a line: Miticidal test on two-spotted spider mites (seedling dip). The class given is in vivo, Tetranvchus urticae. The following applies: Glycine max, 312 h; 500 ppm active ingredient, soybean seedlings with imago mites dipped, 25° C., 13 days; read-out: protective value. As to the method:
A wettable powder prepared in accordance with Formulation Example 2 was diluted with water to a concentration of an active ingredient of 500 ppm. Soybean seedlings which had been inoculated with imago two-spotted spider mites were dipped in the solution and dried in air. The treated soybean seedlings were placed in a thermostatic chamber at 25° C. for 13 days, and the number of live mites were assessed for calculation of the protective value by Equation 1. The test was carried out by one series system.

Bounds are passed on as bounds.

Compound `Cc1cc(F)c(-n2nc(OCC(F)(F)C(F)(F)F)c(Cl)c2Cl)cc1SCC(F)(F)F` [1-111, 1-{2-fluoro-4-methyl-5-(2,2,2-trifluoroethylthio)phenyl}-4,5-dichloro-3-(2,2,3,3,3-pentafluoropropoxy)pyrazole] showed a mortality at 500 ppm in the test with brown rice planthopper of at least 90%. For the same compound, the pest or weed control at 500 ppm with two-spotted spider mites was at least 90%.

On to `Cc1cc(F)c(-n2nc(OCC(F)(F)C(F)(F)F)cc2C#N)cc1[S+]([O-])CC(F)(F)F` (centres unmarked) [1-134, 5-cyano-1-{2-fluoro-4-methyl-5-(2,2,2-trifluoroethylsulfinyl)phenyl}-3-(2,2,3,3,3-pentafluoropropoxy)pyrazole], for which the mortality at 500 ppm with brown rice planthopper was at least 90%. For the same compound, the pest or weed control at 500 ppm with two-spotted spider mites is at least 90%.

Take `Cc1cc(F)c(-n2nc(OCC(F)(F)C(F)(F)F)cc2C(=O)O)cc1SCC(F)(F)F` [1-145, 1-{2-fluoro-4-methyl-5-(2,2,2-trifluoroethylthio)phenyl}-3-(2,2,3,3,3-pentafluoropropoxy)pyrazole-5-carboxylic acid]: the mortality at 500 ppm with brown rice planthopper was at least 90%.

`Cc1cc(F)c(-n2nc(OCC(F)(F)C(F)(F)F)cc2CO)cc1SCC(F)(F)F` [1-201, 1-{2-fluoro-4-methyl-5-(2,2,2-trifluoroethylthio)phenyl}-5-hydroxymethyl-3-(2,2,3,3,3-pentafluoropropoxy)pyrazole] registered a mortality at 500 ppm in the test with brown rice planthopper of at least 90%. The pest or weed control at 500 ppm with two-spotted spider mites is at least 90%.

Consider `Cc1cc(F)c(-n2nc(OCCC(F)(F)F)cc2C)cc1SCC(F)(F)F` [1-249, 1-{2-fluoro-4-methyl-5-(2,2,2-trifluoroethylthio)phenyl}-5-methyl-3-(3,3,3-trifluoropropoxy)pyrazole], for which the mortality at 500 ppm with brown rice planthopper was at least 90%. The pest or weed control at 500 ppm in the test on two-spotted spider mites is at least 90%.

`Cc1cc(F)c(-n2cc(Cl)c(OC(F)(F)C(F)OC(F)(F)F)n2)cc1SCC(F)(F)F` (centres unmarked) [1-289, 4-chloro-1-{2-fluoro-4-methyl-5-(2,2,2-trifluoroethylthio)phenyl}-3-{1,1,2-trifluoro-2-(trifluoromethoxy)ethoxy}pyrazole] had a mortality at 500 ppm with brown rice planthopper of at least 90%. Moreover, the pest or weed control at 500 ppm in the test with two-spotted spider mites was at least 90%.

Regarding `Cc1cc(F)c(-n2cc(Cl)c(OC(F)(F)C(F)OC(F)(F)F)n2)cc1[S+]([O-])CC(F)(F)F` (centres unmarked) [1-290, 4-chloro-1-{2-fluoro-4-methyl-5-(2,2,2-trifluoroethylsulfinyl)phenyl}-3-{1,1,2-trifluoro-2-(trifluoromethoxy)ethoxy}pyrazole], the mortality at 500 ppm in the test with brown rice planthopper is at least 90%. In addition, the pest or weed control at 500 ppm with two-spotted spider mites is at least 90%.

Compound `Cc1cc(F)c(-n2nc(OC(F)(F)C(F)OC(F)(F)F)cc2C#N)cc1[S+]([O-])CC(F)(F)F` (centres unmarked) [1-669, 5-cyano-1-{2-fluoro-4-methyl-5-(2,2,2-trifluoroethylsulfinyl)phenyl}-3-{1,1,2-trifluoro-2-(trifluoromethoxy)ethoxy}pyrazole] gave a mortality at 500 ppm in the test on brown rice planthopper of at least 90%. The pest or weed control at 500 ppm in the test on two-spotted spider mites was at least 90%.

The compound `Cc1cc(F)c(-n2nc(OC(F)(F)C(F)OC(F)(F)F)cc2C(F)F)cc1[S+]([O-])CC(F)(F)F` (centres unmarked) [1-1532, 5-difluoromethyl-1-{2-fluoro-4-methyl-5-(2,2,2-trifluoroethylsulfinyl)phenyl}-3-{1,1,2-trifluoro-2-(trifluoromethoxy)ethoxy}pyrazole] gave a mortality at 500 ppm with brown rice planthopper of at least 90%. For the same compound, the pest or weed control at 500 ppm with two-spotted spider mites was at least 90%.

In the test on brown rice planthopper, `Cc1cc(F)c(-n2ccc(Oc3ccc(C(F)(F)F)cc3)n2)cc1[S+]([O-])CC(F)(F)F` (centres unmarked) [1-1586, 1-{2-fluoro-4-methyl-5-(2,2,2-trifluoroethylsulfinyl)phenyl}-3-{4-(trifluoromethyl)phenoxy}pyrazole] returned a mortality at 500 ppm of at least 90%. The pest or weed control at 500 ppm with two-spotted spider mites is at least 90%.

Take `Cc1cc(F)c(-n2cc(C#N)c(OC(F)(F)C(F)OC(F)(F)F)n2)cc1[S+]([O-])CC(F)(F)F` (centres unmarked) [1-1588, 4-cyano-1-{2-fluoro-4-methyl-5-(2,2,2-trifluoroethylsulfinyl)phenyl}-3-{1,1,2-trifluoro-2-(trifluoromethoxy)ethoxy}pyrazole]: the pest or weed control at 500 ppm with two-spotted spider mites was at least 90%.
